Here are results for seven compounds from patent US20020016370A1 (priority 1998, published 2002).

The subject of one data set is mice. To be noted: cited from earlier work.
The subject of the next data set is TS patients. To be noted: Tourette's syndrome; cited from earlier work.
Data set [1] has as its system Sprague-Dawley derived rats. Kind of data set: Prevention of sensitized locomotor stimulant response to nicotine. Conditions: pretreatment 7 days before nicotine; test on day 9. Type of data set: in vivo, rat.
In data set [2] the test system is male Swiss-Webster mice. Briefly: Cocaine interaction study (locomotor activity). The data set is classed as in vivo, mouse. Conditions: 10 mg/kg ip plus cocaine 20 mg/kg, at 30 minutes.
In a further data set the target is T1, human α3β2 receptors (Homo sapiens, UniProt P17787+P32297).
T1 construct: expressed in transfected cells; host or cells: Xenopus laevis oocytes injected with cRNA
Kind of data set: Two-electrode voltage clamp, receptors expressed in Xenopus oocytes. The data set is classed as cell-based. To be noted: β2-containing receptors.

The test system of data set [3] is vagotomized, pithed and artificially respired rats. Kind of data set: Pithed rat: cardiovascular responses to sympathetic nerve stimulation. Type of data set: in vivo. To be noted: for increases in heart rate (δ HR): 2.2 Hz, highest dose, versus saline; for stimulation-induced increases in MAP: stimulation at 0.8 and 2.2 Hz, i.v. bolus.
Data set [4] deals with hNET (norepinephrine transporter) (Homo sapiens, UniProt P23975). Kind of data set: [125]RTI-55 binding, HEK293 cell membranes. To be noted: HEK-hNET membranes.
Data set [5] deals with T2, α1β1δε mouse muscle receptors (Mus musculus, UniProt P02716+P04756+P09690+P20782). Kind of data set: Selectivity test on muscle receptors in oocytes. The data set is classed as cell-based.
Experimental: For electrophysiology, oocyte recordings were made with an oocyte amplifier (e.g., Warner Instruments, Hamden, Conn., No. OC-725C) and recording chamber. […] A Mariotte flask filled with Ringer's solution was used to maintain a constant hydrostatic pressure for drug delivery and washes. Drugs were diluted in perfusion solution and loaded into a 2 ml loop at the terminus of the perfusion line. A bypass of the drug-loading loop allowed bath solution to flow continuously while the drug loop was loaded. The drug application was synchronized with data acquisition by using a 2-way electronic valve. […] Voltage electrodes were filled with 3M KCl and have resistances of 1-3MΩ. Oocytes with resting membrane potentials more positive than -30 mV were not used. […] All drug applications were separated by at least a 5 min wash period, longer if there is persisting drug effect. At the start of recording, all oocytes received two initial control applications of ACh. The second application of control ACh minimized the effects of rundown that occasionally occur after an initial ACh response. The second application of ACh also was used to normalize for the level of channel expression in each oocyte. To determine residual inhibitory effects, application of ACh with inhibitor or inhibitor alone was followed by another application of ACh alone and compared to the pre-application control ACh response. […]
For data set [6], the target named is hDAT (dopamine transporter) (Homo sapiens, UniProt Q01959). Kind of data set: [125]RTI-55 binding, HEK293 cell membranes. Conditions: HEK-hDAT membranes.
A further data set addresses T3, human α3β4 receptors (Homo sapiens, UniProt P30926+P32297).
T3 construct: expressed in transfected cells; host or cells: Xenopus laevis oocytes injected with cRNA
Kind of data set: Two-electrode voltage clamp, receptors expressed in Xenopus oocytes. The data set is classed as cell-based.

In data set [7] the test system is vagotomized, pithed and artificially respired rats. Briefly: Pithed rat: plasma catecholamine responses to sympathetic nerve stimulation. The data set is classed as in vivo. To be noted: for change of plasma DA levels on sympathetic stimulation: from baseline.
For data set [8], the target named is hSERT (serotonin transporter) (Homo sapiens, UniProt P31645). Briefly: [125]RTI-55 binding, HEK293 cell membranes. Conditions: HEK-hSERT membranes.
The target in the next data set is T4, human α7 receptors (Homo sapiens, UniProt P36544).
T4 construct: expressed in transfected cells; host or cells: Xenopus laevis oocytes injected with cRNA
Briefly: Two-electrode voltage clamp, receptors expressed in Xenopus oocytes. Type of data set: cell-based.

In data set [9] the test system is male Swiss-Webster mice. Kind of data set: Locomotor depression test. The data set is classed as in vivo, mouse.
Data set [10] has as its system Male Sprague-Dawley rats. Kind of data set: Mecamylamine blockade of nicotine-induced seizures. Type of data set: in vivo, rat.
The next data set has as its target T5, human α4β2 receptors (Homo sapiens, UniProt P17787+P43681).
T5 construct: expressed in transfected cells; host or cells: Xenopus laevis oocytes injected with cRNA
Kind of data set: Two-electrode voltage clamp, receptors expressed in Xenopus oocytes. Type of data set: cell-based.

Data set [11] has as its system Male Sprague-Dawley rats. Kind of data set: Effects of mecamylamine alone at high dose (seizures, spontaneous locomotor activity). The data set is classed as in vivo, rat. Conditions: 10 mg/kg s.c.
The target in data set [12] is T2, α1β1δε mouse muscle receptors. Conditions: stated as a finding in the discussion; cited from earlier work.
The target in data set [13] is T6, NMDA receptor subunits NR1 and NR2b (Homo sapiens, UniProt Q05586+Q13224).
T6 construct: expressed in transfected cells; host or cells: Xenopus oocytes
Kind of data set: Oocytes coexpressing NMDA receptor subunits. Conditions: 100 μM. Type of data set: cell-based. The text has this: NR1 is ubiquitous in the brain and produces robust functional responses when coexpressed with the NR2b subunit and activated by glutamate and the coagonist glycine. NR2b in vivo is selectively present in the forebrain with high levels of expression in the cerebral cortex and hippocampus, as well as the septum, caudate putamen and olfactory bulb, making the combination of NR2b and NR1 relevant for both cognitive and motor functions in the CNS.

The subject of a further data set is nicotine receptors. Briefly: Oocyte recovery time course and agonist tests, receptor subtype not specified. The data set is classed as cell-based.
The test system of another data set is rats. To be noted: mecamylamine 0.1-1 mg/day, ip; cited from earlier work.

SMILES strings stand for the structures. Like-named read-outs stand apart in the source and are kept apart here.

T2 sequence (P04756 21-457): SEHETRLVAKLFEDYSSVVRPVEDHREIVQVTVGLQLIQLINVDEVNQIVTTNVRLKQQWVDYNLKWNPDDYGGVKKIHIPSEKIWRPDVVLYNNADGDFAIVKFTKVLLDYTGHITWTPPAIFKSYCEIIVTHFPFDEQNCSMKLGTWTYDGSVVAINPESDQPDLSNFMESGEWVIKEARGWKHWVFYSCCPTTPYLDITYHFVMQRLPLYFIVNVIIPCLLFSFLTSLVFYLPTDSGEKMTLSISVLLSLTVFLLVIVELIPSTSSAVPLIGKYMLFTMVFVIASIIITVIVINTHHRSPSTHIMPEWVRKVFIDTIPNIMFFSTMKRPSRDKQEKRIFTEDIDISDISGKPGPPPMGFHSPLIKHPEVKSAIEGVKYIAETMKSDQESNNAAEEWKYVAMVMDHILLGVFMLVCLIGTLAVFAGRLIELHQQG
T2 sequence (P09690 24-501): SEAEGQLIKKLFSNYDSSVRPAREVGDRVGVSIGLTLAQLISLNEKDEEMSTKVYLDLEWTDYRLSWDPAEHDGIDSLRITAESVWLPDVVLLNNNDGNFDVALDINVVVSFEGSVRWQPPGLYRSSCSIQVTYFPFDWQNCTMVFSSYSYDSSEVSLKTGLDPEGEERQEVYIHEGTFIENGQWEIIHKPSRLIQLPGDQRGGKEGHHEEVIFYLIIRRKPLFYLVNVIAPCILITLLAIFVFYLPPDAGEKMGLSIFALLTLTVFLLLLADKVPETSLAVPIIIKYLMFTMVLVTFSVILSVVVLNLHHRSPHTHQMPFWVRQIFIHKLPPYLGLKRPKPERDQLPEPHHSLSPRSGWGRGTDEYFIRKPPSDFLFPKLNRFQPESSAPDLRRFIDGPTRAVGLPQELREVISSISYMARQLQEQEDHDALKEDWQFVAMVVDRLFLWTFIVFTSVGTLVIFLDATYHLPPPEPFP
T2 sequence (P02716 25-520): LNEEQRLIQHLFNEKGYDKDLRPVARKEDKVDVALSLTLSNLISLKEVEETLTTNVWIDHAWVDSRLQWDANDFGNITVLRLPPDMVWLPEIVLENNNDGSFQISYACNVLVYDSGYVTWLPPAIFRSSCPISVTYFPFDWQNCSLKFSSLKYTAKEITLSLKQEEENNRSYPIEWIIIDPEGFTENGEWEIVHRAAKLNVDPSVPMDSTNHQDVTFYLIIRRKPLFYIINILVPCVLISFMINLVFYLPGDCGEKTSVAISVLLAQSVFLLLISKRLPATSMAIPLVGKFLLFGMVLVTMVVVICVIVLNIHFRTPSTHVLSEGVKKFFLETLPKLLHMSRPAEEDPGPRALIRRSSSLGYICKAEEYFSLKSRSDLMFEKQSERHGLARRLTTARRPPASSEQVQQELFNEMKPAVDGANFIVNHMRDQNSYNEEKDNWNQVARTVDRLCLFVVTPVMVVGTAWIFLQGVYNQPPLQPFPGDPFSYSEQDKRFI
T2 sequence (P20782 21-493): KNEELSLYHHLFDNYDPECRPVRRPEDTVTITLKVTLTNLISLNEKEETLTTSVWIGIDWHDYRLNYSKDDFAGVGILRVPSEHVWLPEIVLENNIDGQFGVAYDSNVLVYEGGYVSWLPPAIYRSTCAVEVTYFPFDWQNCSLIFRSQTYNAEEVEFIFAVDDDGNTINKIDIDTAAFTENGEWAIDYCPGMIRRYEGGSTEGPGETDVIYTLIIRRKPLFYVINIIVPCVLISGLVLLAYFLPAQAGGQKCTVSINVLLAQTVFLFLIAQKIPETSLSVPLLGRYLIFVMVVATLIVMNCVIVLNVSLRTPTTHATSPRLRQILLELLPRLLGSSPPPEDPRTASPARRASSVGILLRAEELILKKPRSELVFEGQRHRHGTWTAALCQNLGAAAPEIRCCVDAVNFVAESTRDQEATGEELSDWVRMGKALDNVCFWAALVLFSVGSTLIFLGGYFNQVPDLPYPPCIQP
T5 sequence (P43681 29-627 limits assumed): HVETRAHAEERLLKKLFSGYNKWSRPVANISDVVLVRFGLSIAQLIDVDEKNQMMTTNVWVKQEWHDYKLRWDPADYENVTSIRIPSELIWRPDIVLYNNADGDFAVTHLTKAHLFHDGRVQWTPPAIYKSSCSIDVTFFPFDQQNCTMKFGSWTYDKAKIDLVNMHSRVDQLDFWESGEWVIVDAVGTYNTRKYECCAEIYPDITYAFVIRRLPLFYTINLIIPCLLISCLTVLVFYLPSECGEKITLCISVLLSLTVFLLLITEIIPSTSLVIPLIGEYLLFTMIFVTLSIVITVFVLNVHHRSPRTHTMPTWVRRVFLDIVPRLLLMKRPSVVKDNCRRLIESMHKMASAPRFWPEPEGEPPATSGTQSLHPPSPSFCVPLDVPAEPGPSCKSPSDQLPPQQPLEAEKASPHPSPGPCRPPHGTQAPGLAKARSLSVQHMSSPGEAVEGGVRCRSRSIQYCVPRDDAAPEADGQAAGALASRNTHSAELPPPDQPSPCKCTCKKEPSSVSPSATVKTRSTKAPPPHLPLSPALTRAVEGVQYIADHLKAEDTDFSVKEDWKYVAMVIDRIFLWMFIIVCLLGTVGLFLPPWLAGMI
T5 sequence (P17787 26-502): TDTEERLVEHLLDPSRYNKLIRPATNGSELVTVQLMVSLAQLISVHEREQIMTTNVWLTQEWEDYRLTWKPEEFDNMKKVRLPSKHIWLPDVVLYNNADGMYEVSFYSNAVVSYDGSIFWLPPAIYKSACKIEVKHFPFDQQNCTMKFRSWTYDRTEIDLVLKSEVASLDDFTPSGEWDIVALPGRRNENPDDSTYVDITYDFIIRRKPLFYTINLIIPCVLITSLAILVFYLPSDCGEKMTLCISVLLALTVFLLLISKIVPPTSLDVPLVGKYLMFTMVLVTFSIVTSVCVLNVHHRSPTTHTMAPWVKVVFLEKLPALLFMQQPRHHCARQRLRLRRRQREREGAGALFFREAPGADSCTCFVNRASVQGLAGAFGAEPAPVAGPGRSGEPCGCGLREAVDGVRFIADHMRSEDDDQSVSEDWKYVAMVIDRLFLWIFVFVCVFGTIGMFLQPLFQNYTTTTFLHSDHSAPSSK
T3 sequence (P32297 32-505): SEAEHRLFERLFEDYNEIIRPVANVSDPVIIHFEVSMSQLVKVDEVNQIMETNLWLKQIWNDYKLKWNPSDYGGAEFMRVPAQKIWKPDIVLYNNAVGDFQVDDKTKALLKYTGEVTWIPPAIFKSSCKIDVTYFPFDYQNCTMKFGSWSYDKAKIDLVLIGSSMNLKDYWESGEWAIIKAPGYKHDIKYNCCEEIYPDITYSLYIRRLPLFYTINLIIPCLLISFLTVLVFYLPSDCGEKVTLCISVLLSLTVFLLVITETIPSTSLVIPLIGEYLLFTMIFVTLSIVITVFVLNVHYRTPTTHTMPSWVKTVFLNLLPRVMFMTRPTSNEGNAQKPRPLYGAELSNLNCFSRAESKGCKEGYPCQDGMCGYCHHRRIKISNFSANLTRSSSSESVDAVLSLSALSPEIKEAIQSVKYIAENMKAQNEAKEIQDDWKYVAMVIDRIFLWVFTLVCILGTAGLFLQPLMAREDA
T3 sequence (P30926 22-498): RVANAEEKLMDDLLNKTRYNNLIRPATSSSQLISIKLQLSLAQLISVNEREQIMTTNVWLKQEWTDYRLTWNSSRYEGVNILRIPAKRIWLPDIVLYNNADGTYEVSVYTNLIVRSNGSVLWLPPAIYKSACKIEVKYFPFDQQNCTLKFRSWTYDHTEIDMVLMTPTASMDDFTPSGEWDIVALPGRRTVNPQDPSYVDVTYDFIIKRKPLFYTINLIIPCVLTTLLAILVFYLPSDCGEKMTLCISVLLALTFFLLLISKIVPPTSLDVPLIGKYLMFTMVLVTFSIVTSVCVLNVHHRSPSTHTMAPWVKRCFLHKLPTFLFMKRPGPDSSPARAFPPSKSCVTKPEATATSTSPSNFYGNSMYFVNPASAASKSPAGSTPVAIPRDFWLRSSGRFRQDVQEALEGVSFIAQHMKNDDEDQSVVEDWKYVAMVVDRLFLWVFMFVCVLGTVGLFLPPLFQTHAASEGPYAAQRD
T4 sequence (P36544 23-502): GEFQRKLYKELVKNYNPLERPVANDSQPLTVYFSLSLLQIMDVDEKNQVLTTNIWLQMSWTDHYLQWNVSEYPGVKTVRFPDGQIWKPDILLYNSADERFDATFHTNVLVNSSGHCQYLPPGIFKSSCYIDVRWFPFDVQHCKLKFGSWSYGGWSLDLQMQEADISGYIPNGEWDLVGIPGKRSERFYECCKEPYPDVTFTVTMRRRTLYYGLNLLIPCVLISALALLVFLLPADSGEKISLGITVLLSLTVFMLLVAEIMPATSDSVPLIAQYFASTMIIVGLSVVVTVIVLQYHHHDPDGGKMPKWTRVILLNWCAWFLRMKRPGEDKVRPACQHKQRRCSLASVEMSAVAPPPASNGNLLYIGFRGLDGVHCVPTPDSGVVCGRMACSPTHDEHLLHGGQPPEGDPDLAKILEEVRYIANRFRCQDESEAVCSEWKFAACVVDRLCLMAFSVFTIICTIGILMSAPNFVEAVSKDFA
T1 sequence (P32297 32-505): as the sequence (P32297 32-505) above
T1 sequence (P17787 26-502): as the sequence (P17787 26-502) above

As to `CN1[C@@H]2CC[C@H]1C[C@@H](OC(=O)C(CO)c1ccccc1)C2` (some centres unmarked) [atropine], the “effect against psychostimulant-induced stereotypy in naive animals” value in the data set with mice (mouse, in vivo) is listed as “ineffective”.

On to `Clc1cccc(Cl)c1N=C1NCCN1` [clonidine], for which the “success rate for motor and vocal tics” value with TS patients is recorded as 40%.

With `CO[C@H]1CC=C2CCN3CCC4=C(CC(=O)OC4)[C@]23C1` [dihydro-beta-erythroidine], the “effect against psychostimulant-induced stereotypy in naive animals” value in the data set with mice (systemic administration) is “ineffective”.

Turning to `CN[C@]1(C)[C@H]2CC[C@H](C2)C1(C)C` [exo-R-mecamylamine], the “effectiveness compared between isomers, particularly center distance and vertical activity” value in data set [1] is listed as “generally more effective at lower doses”. In addition, the “locomotion versus cocaine alone” value in the data set with male Swiss-Webster mice [2] is given as “significantly lower”. Further, on human α3β2 receptors, the “residual inhibition, compared across receptors” value was “greatest”. Also, in [3], the “increases in heart rate (δ HR)” value was “significantly lowered the increases in heart rate” and the “stimulation-induced increases in MAP” value is “completely abolished”. For the same compound, the “affinity compared to cocaine” value in [4] was “lower than the affinity of cocaine”. Further, in data set [5], the “effect on muscle receptors” value was “very little effect” and the “inhibition of muscle receptors after a 5-min wash” value is listed as “fully reversed”. Besides, in [6], the “affinity compared to cocaine” value is reported as “lower than the affinity of cocaine”. For the same compound, the “subsequent control response to ACh 5 min after exposure (residual inhibition)” value on human α3β4 receptors is listed as “marked decrease”. Besides, the “fast phase of recovery, average duration” value on human α3β4 receptors (no further recovery afterwards) is recorded as 12 min. Besides, in [7] (2.2 Hz), the “stimulation-induced increases in plasma NE levels versus saline” value is listed as “significantly less” and the “change of plasma DA levels on sympathetic stimulation” value was “significant increases in plasma DA levels”. Further, the “affinity compared to cocaine” value in data set [8] is recorded as “lower than the affinity of cocaine”. Moreover, on human α7 receptors, the “potency of inhibition, comparing the IC50 values across receptors” value was “least potent” and the “residual inhibition, compared across receptors” value is “least”. For the same compound, the stimulant effects entry in the data set on male Swiss-Webster mice [9] (10 mg/kg ip, last 30 minutes of testing) was “evident”. Also, the “dose producing one half of the maximal depressant activity” value in the data set with male Swiss-Webster mice [9] (ip, 20 min before testing, maximal depression is 0 counts in 30 minutes) was 9.3 mg/kg. The “duration and severity of seizure versus saline (FIG. 6C)” value in the data set on Male Sprague-Dawley rats [10] (0.1 mg/kg s.c.) was “did not differ from their saline comparison group”. Also, on human α4β2 receptors (5 μM, −40 mV or 90 mV), the “voltage dependence of inhibition / off rate” value is on record as “significant voltage effects”. In addition, at human α4β2 receptors (β2-containing receptors), the “residual inhibition, compared across receptors” value was “greatest”.

Take `CN[C@@]1(C)[C@@H]2CC[C@@H](C2)C1(C)C` [exo-S-mecamylamine]: in [3], the “increases in heart rate (δ HR)” value is “significantly lowered the increases in heart rate” and the “stimulation-induced increases in MAP” value is “completely abolished”. For the same compound, in the data set with Male Sprague-Dawley rats [11], the “locomotor depressant effects compared to exo-R-mecamylamine” value is “significantly less locomotor depressant effects”. Also, the “inhibitory effect at nAChR muscle receptors compared to exo-R-mecamylamine” value in data set [12] is on record as “less inhibitory effect”. Also, in data set [7] (2.2 Hz), the “stimulation-induced increases in plasma NE levels versus saline” value is recorded as “significantly decreased stimulation-evoked plasma NE increases”, the “stimulation-induced plasma EPI responses” value is reported as “significant decrease” and the “change of plasma DA levels on sympathetic stimulation” value is “not”. The “overall effectiveness on plasma CA and sympathetically-mediated cardiovascular responses” value in data set [7] (among the three forms) is “the most effective in reducing plasma CA”. In addition, in the data set with Male Sprague-Dawley rats [10] (0.1 mg/kg s.c.), the “duration and severity of seizure versus saline (FIG. 6C)” value is listed as “significantly different from their saline comparison groups”; the “seizure latency versus saline comparison groups” value is “significantly longer seizure latency”. In the data set with Male Sprague-Dawley rats [10] (lowest dose 0.1 mg/kg), the “number of rats with nicotine-seizures compared to exo-R-mecamylamine” value is “fewer rats had nicotine-seizures”. Besides, in data set [13], the “inhibition of response to 10 μM glutamate+10 μM glycine” value is on record as “transient inhibition” and the “reversibility after a 5-min wash” value is “reversible”. Besides, the initial inhibition result in the data set with nicotine receptors (co-application of 10 μM and ACh at the control concentration) is given as “greater than 50%”. Besides, the “off-loading from some receptors compared to exo-R-mecamylamine” value in the data set with nicotine receptors (recovery time course) is listed as “more slowly”.

As for `O=C(CCCN1CCC(O)(c2ccc(Cl)cc2)CC1)c1ccc(F)cc1` [haloperidol], the “cases in which effective” value in the data set on TS patients is “about 70%”.

As to `C[N+](C)(C)CCCCCC[N+](C)(C)C` [hexamethonium], in the data set with rats, the “block of nicotine-induced locomotor hyperactivity and tail tremor” value is reported as “not”.
